Literature values as cited in US20140271529A1, “ANTIFUNGAL COMPOSITIONS FOR THE TREATMENT OF SECONDARY SKIN AND NAIL INFECTIONS” (ALC Therapeutics, LLC, priority 2013, published 2014).

Columns and labels:
[1] = 14C-labelled griseofulvin dissolved in the solvent; human skin in vitro
[2] = human, in vivo

Row | Molecule | ratios of penetration of griseofulvin in the various solvents [1] | acute paronychia, patients affected [2]
1 | CN(C)C=O [dimethylformamide] | 7 | –
2 | c1ccccc1 [benzene] | 1 | –
3 | CCO [alcohol] | 3 | –
4 | C[S+](C)[O-] [DMSO, dimethylsulfoxide] | 60 | –
5 | panitumumab | – | ≤ 45%
